From article PMC10531311, “Anti-Inflammatory Activities of 8-Benzylaminoxanthines Showing High Adenosine A2A and Dual A1/A2A Receptor Affinity” (International Journal of Molecular Sciences, 2023)
Entries after “also recorded” stand apart in the source; their conditions may differ.

Columns and labels:
human adenosine A2BR = molecular target: T1, human adenosine A2BR (Homo sapiens, UniProt P29275); experiment: Radioligand binding at human adenosine A2B receptor vs. [3H]PSB-603; settings: for inhibition at 1 µM: CHO cells, read-out: A2BR vs. [³H]PSB-603 % Inhibition ± SEM at 1 µM; for Ki: human recombinant receptor in CHO cells, read-out: A2BR vs. [³H]PSB-603 Ki ± SEM
T1 construct: expressed in transfected cells; host or cells: CHO cells
T1 sequence (P29275 1-332): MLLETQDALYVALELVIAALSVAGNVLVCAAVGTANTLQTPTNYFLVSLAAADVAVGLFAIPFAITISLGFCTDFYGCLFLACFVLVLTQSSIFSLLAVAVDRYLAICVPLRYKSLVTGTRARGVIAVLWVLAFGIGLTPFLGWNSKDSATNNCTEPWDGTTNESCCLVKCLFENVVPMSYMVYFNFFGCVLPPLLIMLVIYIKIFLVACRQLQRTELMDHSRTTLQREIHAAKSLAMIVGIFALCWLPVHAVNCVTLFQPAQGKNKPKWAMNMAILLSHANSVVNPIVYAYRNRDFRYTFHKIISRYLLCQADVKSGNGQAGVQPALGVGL

CYP2D6 = molecular target: T2, CYP2D6 (Homo sapiens, UniProt P10635); experiment: Drug-drug interactions, CYP2D6 P450-Glo; type: in vitro ADME; settings: 10 µM
T2 construct: purchased Promega (Madison, WI, USA)
Method: To predict potential drug-drug interactions (DDI) effects on three of the most relevant cytochrome P450 (CYP), isoforms CYP3A4, CYP2D6 and CYP2C9 were investigated at a concentration of 10 µM. The results were compared with the effects of 1 µM of the selective inhibitors ketoconazole (CYP3A4), quinidine (CYP2D6) and sulfaphenazole (CYP2C9).
The influence of the tested compounds on recombinant human cytochromes was determined with the use of CYP3A4, CYP2D6 and CYP2C9 P450-Glo™ kits and protocols provided by Promega (Madison, WI, USA). Compounds were tested at a concentration of 10 μM. Reference inhibitors: Ketoconazole (CYP3A4), quinidine (CYP2D6) and sulfaphenazole (CYP2C9) were tested at 1 μM. The luminescent signals were measured using a microplate reader EnSpire PerkinElmer (Waltham, MA, USA).

[1] = tested on: BV-2 cells treated with LPS; experiment: Griess assay, NO production; settings: BV-2, LPS 1 μg/mL 24 h; at the lowest concentrations (19: 100 nM; 22: 100 and 200 nM)
Method: To assess the ability of compounds to inhibit NO production, the Griess assay was applied. This is a colorimetric assay to measure the levels of nitrite (NO2^−), which is one of the primary and stable metabolites of NO. The anti-inflammatory activity of compounds was examined in BV-2 cells treated with LPS as previously described [19]. Briefly, BV-2 cells were first pre-treated with increasing concentrations of tested compounds for 1 h, followed by LPS (1 μg/mL) stimulation for 24 h. Together with the Griess assay, the 3-(4,5-dimethylthiazol-2-yl)-5-(3-carboxymethoxyphenyl)-2-(4-sulfophenyl)-2H-tetrazolium (MTS) assay was performed to ensure that the decrease in NO level was not an effect of toxicity.
Griess reagent (Sigma-Aldrich, Saint Louis, MO, USA, G4410) was freshly prepared by dissolving 1 g in ultrapure water and mixing by inversion for about 4 min under protection from light. […] The plate was incubated for 15 min at room temperature and the absorbance was read at 540 nm using the EnSpire microplate reader (PerkinElmer, Waltham, MA, USA). Data were analyzed by direct comparison based on the average absorbance of LPS treatment, compound treatment or co-treatment with LPS, performed by normalizing treated cells (compound alone or co-treatment with LPS) to LPS-treated cells set at 100%.

BV-2 cells = experiment: Phagocytic activity, IncuCyte pHrodo; type: cell-based; settings: 1 µM; BV-2, LPS 1 μg/mL; apoptotic Jurkat target cells
Method: For the evaluation of phagocytic activity, compound 22 (MZ1490) was chosen as the most promising one on the basis of the results from the Griess assay. This compound was tested at a concentration of 1 µM, and phagocytosis was monitored in real time using an IncuCyte® pHrodo® Red Cell Labeling Kit (catalog no. 4766, Sartorius, Göttingen, Germany). […] It is interesting to note that the phagocytic activity exerted by untreated BV-2 cells is also related to the serum concentration. A healthy CNS maintains the BBB, and microglia are often highly ramified surveillance microglia without enhanced phagocytosis. […]
Phagocytosis was monitored in real time using the IncuCyte® pHrodo® Red Cell Labeling Kit. The principle of this test is based on the ability of the pHrodo to emit fluorescence in an acidic environment, which is precisely the environment inside the phagosome. If effector cells engulf labeled target cells and these enter the acidic phagosome, a substantial increase in fluorescence is observed. In this way, we can quantify phagocytosis. […] After this time, the labeled Jurkat apoptotic cells were added to the BV-2 cells at a density of 100,000 cells/well and the cells were monitored in an IncuCyte Live-Cell Analysis System. Repeat scanning to record phase and fluorescence images was carried out every 1 h, for up to 22 h. […]

T2 sequence (P10635 whole entry): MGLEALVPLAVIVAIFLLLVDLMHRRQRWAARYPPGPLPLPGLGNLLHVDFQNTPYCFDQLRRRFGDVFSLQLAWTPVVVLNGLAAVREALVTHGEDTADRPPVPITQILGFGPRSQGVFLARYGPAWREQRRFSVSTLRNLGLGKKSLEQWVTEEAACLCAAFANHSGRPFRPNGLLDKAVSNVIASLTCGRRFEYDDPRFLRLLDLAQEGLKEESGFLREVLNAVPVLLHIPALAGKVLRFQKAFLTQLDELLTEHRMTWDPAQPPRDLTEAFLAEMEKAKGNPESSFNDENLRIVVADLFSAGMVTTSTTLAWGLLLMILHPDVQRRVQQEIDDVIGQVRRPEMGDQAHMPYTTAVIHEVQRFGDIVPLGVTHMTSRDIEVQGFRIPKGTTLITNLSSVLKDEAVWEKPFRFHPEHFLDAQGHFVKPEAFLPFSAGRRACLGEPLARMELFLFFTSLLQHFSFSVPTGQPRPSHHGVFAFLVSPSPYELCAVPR

SMILES	inhibition at 1 µM (human adenosine A2BR) [%]	Ki (human adenosine A2BR) [nM]	effect on CYP2D6 activity (in words) (CYP2D6)	anti-inflammatory activity in Griess assay (in words) [1]	effect on phagocytosis (in words) (BV-2 cells)
C#CCn1c(=O)c2c(nc(NCc3cccc(Br)c3)n2C)n(C)c1=O [compound 24, 8-((3-Bromobenzyl)amino)-3,7-dimethyl-1-(prop-2-yn-1-yl)-3,7-dihydro-1H-purine-2,6-dione]	25	> 1000	slight, statistically significant inhibition		
C#CCn1c(=O)c2c(nc(NCc3ccccc3Cl)n2C)n(C)c1=O [compound 19, 8-((2-Chlorobenzyl)amino)-3,7-dimethyl-1-(prop-2-yn-1-yl)-3,7-dihydro-1H-purine-2,6-dione]	14	> 1000		moderate anti-inflammatory activity	
C#CCn1c(=O)c2c(nc(NCc3c(F)cccc3Cl)n2C)n(C)c1=O [compound 22, 8-((2-Chloro-6-fluorobenzyl)amino)-3,7-dimethyl-1-(prop-2-yn-1-yl)-3,7-dihydro-1H-purine-2,6-dione]	41	> 1000		moderate anti-inflammatory activity	protects microglia from LPS-induced inflammation and, therefore, also from phagocytosis; also recorded: protected from phagocytosis
